Data from patent US10583109B2, “Use of silver(I) complexes as anticancer agents” (University of Johannesburg, priority 2012, dated 2020).

Tests used:
[1] = tested on: SNO-oesophageal cancer cells; assay: Morphological features of SNO-oesophageal cancer cells by inverse light microscopy; assay type: cell-based; conditions: 24 hours of treatment
Description: Morphological studies were done by means of an Axiovert 25 inverted microscope (Carl Zeiss, Göttingen, Germany) with Axio Vision 3.1 software (Carl Zeiss, Göttingen, Germany) using an magnification of 100×.
After 24 hours of treatment with complexes (1)-(5) including their ligands the cells were examined under said Axiovert 25 inverted light microscope. This was done to determine how the complexes of the present invention influence morphology which was compared to 100 μM Cisplatin (apoptotic control) and 15% H2O2 (necrotic control).
Light microscope images indicating the morphology of the differentially treated SNO-oesophageal cancer cells is shown in FIG. 8. An untreated control (a) including 100 μM Cisplatin (b), an apoptotic control and 15% H2O2 (c), and a necrotic control was included. Cells were treated with 10 μM silver(I) thiocyanate phosphine complexes (1)-(5) as well as their separate ligands (Ligand-1 to Ligand-5, respectively) (FIGS. 8d to 8m). Black arrows represent signs of apoptosis, while the white arrows represent signs of necrosis.
An Axiovert 25 inverted microscope was used to examine if these complexes affect the morphological features of the malignant cells in any other way. This was done at a magnification of 100× with the use of Axio Version 3.1 software (Carl Zeiss, Gottingen, Germany).
Morphological studies where done after 24 hours of treatment to determine how these compounds influence/change specific features of the malignant SNO-oesophageal cancer cells, compared to the untreated (UC) and 1% DMSO vehicle control. The treated cancer cells including their controls were examined under an Axiovert 25 inverted light microscope (Carl Zeiss, Göttingen, Germany) with Axio Vision 3.1 software (Carl Zeiss, Göttingen, Germany) using a 100× magnification. In FIG. 19, the morphology of the different controls including Ligand-10 and complexes (10)-(12) are represented. To predict the targeting mechanisms of these compounds, the treated cells were compared to 100 μM Cisplatin (apoptotic control) and 25% H2O2 (necrotic control).

[2] = tested on: SNO-oesophageal cancer cells; assay: Flow cytometric analysis (Annexin-V FITC / PI) of apoptosis and/or necrosis in SNO-oesophageal cancer cells; assay type: cell-based; conditions: 14 μM, 24 hours
Description: To determine if either apoptosis or necrosis occurred, the cells were double labelled with Annexin-V FITC and Propidium Iodide (PI) by means of an Annexin-V FITC assay kit (Serotec, UK). This was done according to manufacturer's instructions with a few adjustments. Briefly, the cells (±3×10^5 cells/ml) were washed twice with cold phosphate buffered saline (PBS), followed by the addition of 100 μl 1× binding buffer. Two and a half microliters of Annexin-V along with 5 μl PI were added in the dark and was incubated for 15 minutes at room temperature. After incubation, 400 μl 1× binding buffer was added and cells were analysed using the FACSAria flow cytometer (BD Biosciences, San Jose, Calif.) with FACSDiva software (BD Biosciences, San Jose, Calif.) 492 nm (excitation) and 520 nm for Annexin and 488 nm and 575 nm(emission) for PI.
The cell membrane contains a negatively charged phosphatidylserine (PS) on the inner leaflet and is exposed when apoptosis or necrosis takes place. Annexin-V interacts with PS in both apoptotic and necrotic cells, making these cellular deaths undistinguishable. This is overcome by using PI as an alternative label that interacts with the exposed DNA of necrotic cells only, leading to the fluorescent detection of both these labels. Pie charts (FIG. 9) were constructed for all the controls (including Ligand-1 to Ligand-5) and the different silver(I) thiocyanate phosphine complexes (1)-(5).
Pie charts representing the four different flow cytometric quadrants of Annexin-V and […] to determine the mode of cellular death induced in differentially treated SNO-oesophageal cells are represented in FIG. 9. An untreated control (A), apoptotic control (B) and necrotic control (C) were included. Cells were treated with 10 μM of the different ligands including the silver(I) thiocyanate phosphine complexes (1)-(5). An average percentage was calculated for all segments where the SEM is n=3 for all treatments except for 15% H2O2 (n=2). The four segments represent the following: White segment—negative for FITC and PI, Light grey segment—positive for FITC but negative for PI, Dark grey segment—positive for PI but negative for FITC and Black segment—positive for both FITC and PI. Cells undergoing early apoptosis are represented by the light grey segment, while those of late apoptosis and primary necrosis are represented by the black segment. Necrotic cells are represented by the dark grey segment and intact viable cells are shown by the white segment.
Approximately 3×10^5 cells were washed with ice cold phosphate buffered saline solution (PBS). The cells were double labeled using an Annexin-V FITC assay kit adjusting the protocol. A 1× binding buffer (100 μl) was used to fix the cells. Annexin-V (2.5 μl) and Propidium Iodide (PI—5 μl) labels were added respectively followed by a 15 minute incubation, at room temperature, in the dark. After the incubation period, 400 μl of the 1× binding buffer was added, where counting of the cellular events was made using an FACSAria flow cytometer (BD Biosciences, San Jose, Calif.) with FACSDiva software (BD Biosciences, San Jose, Calif.). This technique in particular identifies whether predicted apoptotic cell death (or necrosis) was induced by these complexes.
As observed in FIG. 14, dot blots represent the mode of cellular death induced in the SNO-oesophageal cancer cells after 24 hours of treatment. FIG. 14(a): 0.1% DMSO, FIG. 14(b): 100 μM CDDP, FIG. 14(c): 25% H2O2, FIG. 14(d-i): complexes (6)-(9). An average percentage was calculated for all quadrants where the SEM is n=2 for all treatments. The four quadrants represent the following: Quadrant Q3 is negative for FITC and PI, Quadrant Q4 is positive for FITC but negative for PI, Quadrant Q1 is positive for PI but negative for FITC and Quadrant Q2 is positive for both FITC and PI. Cells undergoing early apoptosis are more likely to be found in Quadrant Q4 while those of late apoptosis and primary necrosis will be found in Quadrant Q2. […]

[3] = tested on: SNO-oesophageal cancer cells; assay type: cell-based; conditions: for cancer cell death compared to the vehicle control: 14 μM, 24 hour treatment
[4] = tested on: MCF-7 breast cancer cells; assay: AlamarBlue viability and proliferation assay of MCF-7 breast cancer cells; assay type: cell-based, human
Description: For the biological studies, MCF-7 breast cancer cells were obtained from an immortal cell line from human adenocarcinoma from (primary site) mammary gland and (metastatic site) pleural effusion (ATCC no HTB-22).
MCF-7 breast cancer cells were cultured in Dulbecco's modified Eagle's medium (DMEM), 13.53 g/L with sodium bicarbonate (NaHCO3), 3.7 g/L supplemented with 10% foetal bovine serum (FBS), 1% gentamycin and 5% Penicillin/Streptomycin/Fungizone in 75 cm^3 culture flasks. Cells were subcultured twice a week and incubated at 37° C. with 5% CO2 in a humidified atmosphere. Hanks balanced salt solution (HBSS), supplemented DMEM media and trypsin versene were warmed to 37° C. prior to subculturing. Cells were washed twice with 10 ml Hanks balanced salt solution for 1 minute and were then incubated for 4.5 to 5 minutes at 37° C. with 6 ml trypsin versene to remove the cells from the culture flask. To inactivate the trypsin versene, 10 ml supplemented DMEM was added and the cells were pelleted by centrifugation at 1028 g for 4 minutes with an Allegra™ 25R Centrifuge. The pellet was resuspended in 1 ml supplemented DMEM and 500 μl of the cell suspension was then added to 25 ml of supplemented DMEM media in 75 cm^3 culture flasks.
MCF-7 breast cancer cells, in terms of a first study, and SNO-oesophageal cancer cells, in terms of a second study, were treated with 10 μM silverthiocyanide complexes (1)-(5), as well as their ligands (Ligand-1 to Ligand-5) over a 24 hour incubation period. […] An untreated negative control (UT) was exposed to similar conditions as the treated cells and monitored during the experimental study.
The AlamarBlue® viability and proliferation assay of complexes (1)-(5) for the MCF-7 breast cancer cells is depicted in FIGS. 1A to 1F. The percentage viability of control samples determined by the AlamarBlue® viability and proliferation assay is depicted in FIG. 1A. […] A significant difference (P<0.001) between the control and the treated samples was calculated using Student's T-test and is indicated by an asterisk.
(§1) This Figure depicts the percentage viability of MCF-7 cells treated with various concentrations of complex (1) as determined by the AlamarBlue® viability and proliferation assay. […] The asterisk indicates a significant difference between a sample and the control (P<0.001) as calculated with Student's T-test.
as §1, with “FIG. 1C to FIG. 1F represent the dose dependant studies of complexes (2) to (5), respectively. In each of these Figures,” for “This Figure depicts”, “complexes (2) to (5) was” for “complex (1) as”, “T-test. […]” for “T-test.”

Compound	signs of apoptosis / cell death (morphology) ([1]; 14 μM)	necrotic cell death (morphology) ([1]; 14 μM)	cancer cell death compared to the vehicle control [3]	other results
c1ccc(P(c2ccccc2)c2ccccc2)cc1 [Ligand-10, PPh3, reference compound]	minimal cell death similar to apoptosis	–	–	influence on cellular viability and PS externalisation, flow cytometry [2]: did not influence; viability ([3]; 14 µM): 99.03%
AgCN(PPh3)3 [complex (12)]	multiple signs of apoptosis	Minimal necrotic cell death	significantly induced cancer cell death	–
Clc1ccc([P+](c2ccc(Cl)cc2)(c2ccc(Cl)cc2)[Ag]2([P+](c3ccc(Cl)cc3)(c3ccc(Cl)cc3)c3ccc(Cl)cc3)[N+]#C[S][Ag]([P+](c3ccc(Cl)cc3)(c3ccc(Cl)cc3)c3ccc(Cl)cc3)([P+](c3ccc(Cl)cc3)(c3ccc(Cl)cc3)c3ccc(Cl)cc3)[N+]#C[S]2)cc1 [complex (4), [AgSCN{P(4-ClC6H4)3}2]2]	–	–	–	cytotoxic activity (ranking) ([4]; MCF-7 cells): strongest
[Cl][Ag]([PH](c1ccccc1)(c1ccccc1)c1ccccc1)([PH](c1ccccc1)(c1ccccc1)c1ccccc1)[PH](c1ccccc1)(c1ccccc1)c1ccccc1 [complex (10), AgCl(PPh3)3]	multiple signs of apoptosis	Minimal necrotic cell death	significantly induced cancer cell death	–
[Br][Ag]([PH](c1ccccc1)(c1ccccc1)c1ccccc1)([PH](c1ccccc1)(c1ccccc1)c1ccccc1)[PH](c1ccccc1)(c1ccccc1)c1ccccc1 [complex (11), AgBr(PPh3)3]	multiple signs of apoptosis	Minimal necrotic cell death	significantly induced cancer cell death	apoptotic cells (early and late stages), flow cytometry [2]: 47.23%; necrotic cells positive for PI, flow cytometry [2]: 14.73%
Cc1ccc([P+](c2ccc(C)cc2)(c2ccc(C)cc2)[Ag]2([P+](c3ccc(C)cc3)(c3ccc(C)cc3)c3ccc(C)cc3)[N+]#C[S][Ag]([P+](c3ccc(C)cc3)(c3ccc(C)cc3)c3ccc(C)cc3)([P+](c3ccc(C)cc3)(c3ccc(C)cc3)c3ccc(C)cc3)[N+]#C[S]2)cc1 [complex (2), [AgSCN{P(4-MeC6H4)3}2]2]	–	–	–	decrease in viability and proliferation ([4]; 10 μM, 24 hours after treatment, compared to the untreated control): ~70%; necrotic cell death (morphology) ([1]; 10 μM): Necrotic cell death was also observed
